Measurements published in patent publication US4978673A, “Organic salts of physostigmine derivatives” (priority 1987, dated 1990).
In brackets after ≈: the same amount, converted by molar mass.

How the values were obtained:
[1] = toxicity in the rat (LD50, oral); conditions: in vivo
[2] = in vivo; conditions: rat, po
[3] = water solubility; format: physicochemical

Structure (SMILES): CCCCCCCCCNC(=O)Oc1ccc2c(c1)C1(C)CCN(C)C1N2C (centres unmarked) [***]
- LD50 [1]: 50 mg/kg

Structure (SMILES): CCCCNC(=O)Oc1ccc2c(c1)C1(C)CCN(C)C1N2C (centres unmarked) [**]
- LD50 [1]: 6 mg/kg

Structure (SMILES): CCCCCCCNC(=O)Oc1ccc2c(c1)C1(C)CCN(C)C1N2C (centres unmarked) [*]
- LD50 [2]: 20 mg/kg

Structure (SMILES): CCCCCCCNC(=O)Oc1ccc2c(c1)C1(C)CCN(C)C1N2C (centres unmarked) [Example 1]
- solubility ([3]; water): 700 mg/mL (≈ 1950 mM)

Structure (SMILES): CCCCCCCNC(=O)Oc1ccc2c(c1)C1(C)CCN(C)C1N2C (centres unmarked) [corresponding non-salified derivative]
- water solubility (in words) ([3]; non-salified derivative): insoluble
